Experiment [1] addresses T1, URAT1 (Homo sapiens (Human), UniProt Q96S37). Put plainly: Inhibition of [8-14C] uric acid uptake by HEK293 cells stably expressing URAT1, test compounds at 10 μM. The format is cell-based. How it is done:
(I) Inhibitory Experiment of the Test Compounds at a Concentration of 10 μM on URAT1 After trypsin digestion, the expression cells (HEK293) stably expressing URAT1 gene and mock cells were all inoculated into lysine-coated 24-well culture plates, with the cell inoculation density being 1×10^5 cells/well, and cultured in incubator at 37° C., 5% CO2 and saturated humidity for 2 days. […] After 2 min, the reaction was terminated with ice-bathed DPBS buffer solution and washing was carried out for three times. […]
wherein, control=the intensity of radioactivity corresponding to the well without the test compound test compound=the intensity of radioactivity corresponding to the well with the test compound mock=the intensity of radioactivity corresponding to the well of blank cells untransfected with URAT1

Experiment [2] addresses T1, URAT1. The experiment is described as follows: IC50 for inhibition of the test compounds on URAT1 (nine concentration points, 0.001-10 μM). The note with it: HEK293 cells stably expressing URAT1; [8-14C] uric acid uptake; nine concentrations 0.001-10 μM.
The mark [3] stands for this setting: HEK293, read-out: Inhibition rate (%).
Where [4] appears, read: 10 μM test compound, HEK293 cells stably expressing URAT1, 30 μM [8-14C] uric acid, 2 min.
Where [5] appears, read: 10 μM test compound, HEK293 cells stably expressing URAT1, 30 μM [8-14C] uric acid, 2 min, read-out: Inhibition rate (%).

Structures are written as SMILES. Where two headings read alike, the source gives them in different places.

Data on 53 compounds can be found in US10584104B2, “Carboxylic acid URAT1 inhibitor containing diarylmethane structure, preparation method and use thereof” (TIANJIN INSTITUTE OF PHARMACEUTICAL RESEARCH CO., LTD., priority 2015, dated 2020).

T1 sequence (Q96S37 whole entry): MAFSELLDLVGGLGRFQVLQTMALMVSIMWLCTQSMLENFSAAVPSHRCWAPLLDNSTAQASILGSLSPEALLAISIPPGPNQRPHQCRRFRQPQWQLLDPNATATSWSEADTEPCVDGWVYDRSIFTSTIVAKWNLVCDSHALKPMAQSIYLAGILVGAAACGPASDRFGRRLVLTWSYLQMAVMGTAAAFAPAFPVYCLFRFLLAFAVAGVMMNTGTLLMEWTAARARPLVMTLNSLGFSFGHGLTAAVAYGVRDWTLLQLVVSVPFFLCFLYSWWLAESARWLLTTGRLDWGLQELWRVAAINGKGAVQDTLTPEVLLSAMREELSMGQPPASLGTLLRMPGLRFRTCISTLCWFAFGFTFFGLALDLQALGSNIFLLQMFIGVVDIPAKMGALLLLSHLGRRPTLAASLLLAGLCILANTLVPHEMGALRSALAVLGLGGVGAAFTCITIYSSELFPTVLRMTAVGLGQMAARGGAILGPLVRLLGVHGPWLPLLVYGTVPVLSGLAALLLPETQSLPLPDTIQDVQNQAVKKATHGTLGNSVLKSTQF

Broadly, the inhibition is how much of the control response was suppressed. As for `CC(C)(Sc1nnc(Br)n1-c1ccc(C2CC2)c2ccccc12)C(=O)O` [Compound A, reference compound], the inhibition at 10 µM in experiment [1] (setting [3]) is 55%.
Regarding `O=C(O)CCc1nnc(Br)n1-c1ccc(C2CC2)c2ccccc12` [Compound B, reference compound], the inhibition at 10 µM in experiment [1] (setting [3]) was found to be 50%.
A word on the IC50: it is the concentration at which inhibition is half-maximal. A low value points to greater potency in that assay. Consider `O=C(O)CSc1nnc(Br)n1Cc1ccc(C2CC2)c2ccccc12` [Compound of Example 1], for which the “Inhibition rate (%)” value in experiment [1] (setting [4]) amounted to 90%. The same compound registered an IC50 in experiment [2] of 201 nM.
Take `O=C(O)CCc1nnc(Br)n1Cc1ccc(C2CC2)c2ccccc12` [Compound of Example 2]: the “Inhibition rate (%)” value in experiment [1] (setting [4]) is recorded as 91%. In addition, the IC50 in experiment [2] is 193 nM.
For the compound `O=C(O)CSc1nncn1Cc1ccc(C2CC2)c2ccccc12` [Compound of Example 3], the inhibition at 10 µM in experiment [1] (setting [5]) was found to be 60%.
In the case of `O=C(O)CSc1nnc(F)n1Cc1ccc(C2CC2)c2ccccc12` [Compound of Example 4], the inhibition at 10 µM in experiment [1] (setting [5]) turned out to be 62%.
Consider `O=C(O)CSc1nnc(Cl)n1Cc1ccc(C2CC2)c2ccccc12` [Compound of Example 5], for which the inhibition at 10 µM in experiment [1] (setting [5]) came out at 76%. In addition, in experiment [2], the IC50 amounted to 418 nM.
As to `O=C(O)CSc1nnc(I)n1Cc1ccc(C2CC2)c2ccccc12` [Compound of Example 6], the inhibition at 10 µM in experiment [1] (setting [5]) is 78%. In experiment [2], this compound showed a concentration for half-maximal inhibition (IC50) of 440 nM.
For `O=C(O)CSc1nnc(Br)n1Cc1cccc2ccccc12` [Compound of Example 7], the inhibition at 10 µM in experiment [1] (setting [5]) is 83%.
Take `Cc1ccc(Cn2c(Br)nnc2SCC(=O)O)c2ccccc12` [Compound of Example 8]: in experiment [1] (setting [5]), the inhibition at 10 µM was 83%.
`CCc1ccc(Cn2c(Br)nnc2SCC(=O)O)c2ccccc12` [Compound of Example 9]: the inhibition at 10 µM in experiment [1] (setting [5]) worked out at 84%.
On to `CCCc1ccc(Cn2c(Br)nnc2SCC(=O)O)c2ccccc12` [Compound of Example 10], for which the inhibition at 10 µM in experiment [1] (setting [5]) came to 85%. Inhibition in experiment [2] was half-maximal at 94 nM (IC50).
Taken in the same sequence, the figures for `CC(C)c1ccc(Cn2c(Br)nnc2SCC(=O)O)c2ccccc12` [Compound of Example 11] were 91% and 484 nM.
`O=C(O)CSc1nnc(Br)n1Cc1ccc(F)c2ccccc12` [Compound of Example 12]: the inhibition at 10 µM in experiment [1] (setting [5]) was determined as 76%.
On to `O=C(O)CSc1nnc(Br)n1Cc1ccc(Cl)c2ccccc12` [Compound of Example 13], for which the inhibition at 10 µM in experiment [1] (setting [5]) was 75%.
With `N#Cc1ccc(Cn2c(Br)nnc2SCC(=O)O)c2ccccc12` [Compound of Example 14], the inhibition at 10 µM in experiment [1] (setting [5]) came out at 84%.
Turning to `O=C(O)CSc1nnc(Br)n1Cc1ccc([N+](=O)[O-])c2ccccc12` [Compound of Example 15], the inhibition at 10 µM in experiment [1] (setting [5]) was 70%.
Regarding `COc1ccc(Cn2c(Br)nnc2SCC(=O)O)c2ccccc12` [Compound of Example 16], the inhibition at 10 µM in experiment [1] (setting [5]) came to 81%.
`CC(C)(Sc1nnc(Br)n1Cc1ccc(C2CC2)c2ccccc12)C(=O)O` [Compound of Example 17]: the inhibition at 10 µM in experiment [1] (setting [5]) is 93%. This compound displayed a 50% inhibitory concentration (IC50) in experiment [2] of 1020 nM.
Take `CC(C)(Sc1nncn1Cc1ccc(C2CC2)c2ccccc12)C(=O)O` [Compound of Example 18]: the inhibition at 10 µM in experiment [1] (setting [5]) stood at 78%.
As to `CC(C)(Sc1nnc(F)n1Cc1ccc(C2CC2)c2ccccc12)C(=O)O` [Compound of Example 19], the inhibition at 10 µM in experiment [1] (setting [5]) worked out at 82%.
For `CC(C)(Sc1nnc(Cl)n1Cc1ccc(C2CC2)c2ccccc12)C(=O)O` [Compound of Example 20], the inhibition at 10 µM in experiment [1] (setting [5]) was 86%. The same compound yielded an IC50 in experiment [2] of 886 nM.
Turning to `CC(C)(Sc1nnc(I)n1Cc1ccc(C2CC2)c2ccccc12)C(=O)O` [Compound of Example 21], in experiment [1] (setting [5]), the inhibition at 10 µM worked out at 82%.
Consider `CC(C)(Sc1nnc(Br)n1Cc1cccc2ccccc12)C(=O)O` [Compound of Example 22], for which, in experiment [1] (setting [5]), the inhibition at 10 µM turned out to be 77%.
Regarding `Cc1ccc(Cn2c(Br)nnc2SC(C)(C)C(=O)O)c2ccccc12` [Compound of Example 23], the inhibition at 10 µM in experiment [1] (setting [5]) is 83%.
On to `CCc1ccc(Cn2c(Br)nnc2SC(C)(C)C(=O)O)c2ccccc12` [Compound of Example 24], for which, in experiment [1] (setting [5]), the inhibition at 10 µM is 84%.
As to `CCCc1ccc(Cn2c(Br)nnc2SC(C)(C)C(=O)O)c2ccccc12` [Compound of Example 25], the inhibition at 10 µM in experiment [1] (setting [5]) stood at 80%. Further, in experiment [2], the half-inhibitory concentration (IC50) was 1010 nM.
Regarding `CC(C)c1ccc(Cn2c(Br)nnc2SC(C)(C)C(=O)O)c2ccccc12` [Compound of Example 26], the inhibition at 10 µM in experiment [1] (setting [5]) amounted to 91%.
In the case of `CC(C)(Sc1nnc(Br)n1Cc1ccc(F)c2ccccc12)C(=O)O` [Compound of Example 27], the inhibition at 10 µM in experiment [1] (setting [5]) turned out to be 83%.
For `CC(C)(Sc1nnc(Br)n1Cc1ccc(Cl)c2ccccc12)C(=O)O` [Compound of Example 28], the inhibition at 10 µM in experiment [1] (setting [5]) came to 77%.
In the case of `CC(C)(Sc1nnc(Br)n1Cc1ccc(C#N)c2ccccc12)C(=O)O` [Compound of Example 29], in experiment [1] (setting [5]), the inhibition at 10 µM turned out to be 89%.
With `CC(C)(Sc1nnc(Br)n1Cc1ccc([N+](=O)[O-])c2ccccc12)C(=O)O` [Compound of Example 30], the inhibition at 10 µM in experiment [1] (setting [5]) is 81%.
In the case of `COc1ccc(Cn2c(Br)nnc2SC(C)(C)C(=O)O)c2ccccc12` [Compound of Example 31], in experiment [1] (setting [5]), the inhibition at 10 µM was 84%.
With `O=C(O)CCc1nncn1Cc1ccc(C2CC2)c2ccccc12` [Compound of Example 32], in experiment [1] (setting [5]), the inhibition at 10 µM came out at 67%.
Consider `O=C(O)CCc1nnc(F)n1Cc1ccc(C2CC2)c2ccccc12` [Compound of Example 33], for which the inhibition at 10 µM in experiment [1] (setting [5]) is 68%.
`O=C(O)CCc1nnc(Cl)n1Cc1ccc(C2CC2)c2ccccc12` [Compound of Example 34]: in experiment [1] (setting [5]), the inhibition at 10 µM was found to be 88%.
For the compound `O=C(O)CCc1nnc(I)n1Cc1ccc(C2CC2)c2ccccc12` [Compound of Example 35], the inhibition at 10 µM in experiment [1] (setting [5]) came to 84%.
For `Cc1ccc(Cn2c(Br)nnc2CCC(=O)O)c2ccccc12` [Compound of Example 36], the inhibition at 10 µM in experiment [1] (setting [5]) was determined as 82%.
`CCc1ccc(Cn2c(Br)nnc2CCC(=O)O)c2ccccc12` [Compound of Example 37]: the inhibition at 10 µM in experiment [1] (setting [5]) worked out at 84%.
For the compound `CCCc1ccc(Cn2c(Br)nnc2CCC(=O)O)c2ccccc12` [Compound of Example 38], the inhibition at 10 µM in experiment [1] (setting [5]) came to 86%. Further, the IC50 in experiment [2] is 107 nM.
Taken in the same sequence, the figures for `CC(C)c1ccc(Cn2c(Br)nnc2CCC(=O)O)c2ccccc12` [Compound of Example 39] were 92% and 381 nM.
As to `N#Cc1ccc(Cn2c(Br)nnc2CCC(=O)O)c2ccccc12` [Compound of Example 40], the inhibition at 10 µM in experiment [1] (setting [5]) is 92%.
`CC(C)(Cc1nnc(Br)n1Cc1ccc(C2CC2)c2ccccc12)C(=O)O` [Compound of Example 41]: the inhibition at 10 µM in experiment [1] (setting [5]) is 94%.
Regarding `CC(C)(Cc1nncn1Cc1ccc(C2CC2)c2ccccc12)C(=O)O` [Compound of Example 42], the inhibition at 10 µM in experiment [1] (setting [5]) was 71%.
For the compound `CC(C)(Cc1nnc(F)n1Cc1ccc(C2CC2)c2ccccc12)C(=O)O` [Compound of Example 43], in experiment [1] (setting [5]), the inhibition at 10 µM turned out to be 80%.
With `CC(C)(Cc1nnc(Cl)n1Cc1ccc(C2CC2)c2ccccc12)C(=O)O` [Compound of Example 44], the inhibition at 10 µM in experiment [1] (setting [5]) was 81%.
As for `CC(C)(Cc1nnc(I)n1Cc1ccc(C2CC2)c2ccccc12)C(=O)O` [Compound of Example 45], in experiment [1] (setting [5]), the inhibition at 10 µM is 82%.
Take `Cc1ccc(Cn2c(Br)nnc2CC(C)(C)C(=O)O)c2ccccc12` [Compound of Example 46]: the inhibition at 10 µM in experiment [1] (setting [5]) stood at 84%.
In the case of `CCc1ccc(Cn2c(Br)nnc2CC(C)(C)C(=O)O)c2ccccc12` [Compound of Example 47], the inhibition at 10 µM in experiment [1] (setting [5]) was determined as 85%.
Consider `CCCc1ccc(Cn2c(Br)nnc2CC(C)(C)C(=O)O)c2ccccc12` [Compound of Example 48], for which the inhibition at 10 µM in experiment [1] (setting [5]) stood at 85%. Besides, the half-inhibitory concentration (IC50) in experiment [2] stood at 512 nM.
`CC(C)c1ccc(Cn2c(Br)nnc2CC(C)(C)C(=O)O)c2ccccc12` [Compound of Example 49]: in experiment [1] (setting [5]), the inhibition at 10 µM came out at 93%. Further, in experiment [2], half-maximal inhibition (IC50) required 487 nM.
For the compound `CC(C)(Cc1nnc(Br)n1Cc1ccc(C#N)c2ccccc12)C(=O)O` [Compound of Example 50], the inhibition at 10 µM in experiment [1] (setting [5]) came to 92%.
`O=C(O)CCc1nnc(Br)n1Cc1ccc(Br)c2ccccc12` [Compound of Example 52]: in experiment [1] (setting [5]), the inhibition at 10 µM came out at 93%. This compound returned an IC50 in experiment [2] of 83 nM.
